Results as given in PubChem BioAssay (NCI).
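Grown in 96-well plates, cells were treated for 48 hours with each compound at five concentrations. Insufficient inhibition: endpoint recorded as highest concentration tested. The concentration for 50% growth inhibition is given as GI50. Definition used: TGI = concentration required for complete inhibition of growth.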

Experiments:
Assay in all cases: NCI anticancer screen, dose series, 48 h; in the data active means GI50 below about 0.43 µM; inactive means the rest
786-0 renal = tested on: 786-0 renal
A498 renal = tested on: A498 renal
A549 NSCLC = tested on: A549 NSCLC
ACHN renal = tested on: ACHN renal
BT-549 breast = tested on: BT-549 breast
CCRF-CEM leukemia = tested on: CCRF-CEM leukemia
COLO 205 colon = tested on: COLO 205 colon
DU-145 prostate = tested on: DU-145 prostate
EKVX NSCLC = tested on: EKVX NSCLC
HCC-2998 colon = tested on: HCC-2998 colon
HCT-116 colon = tested on: HCT-116 colon
HCT-15 colon = tested on: HCT-15 colon
HL-60(TB) leukemia = tested on: HL-60(TB) leukemia
HOP-62 NSCLC = tested on: HOP-62 NSCLC
HOP-92 NSCLC = tested on: HOP-92 NSCLC
HS 578T breast = tested on: HS 578T breast
HT29 colon = tested on: HT29 colon
IGROV1 ovarian = tested on: IGROV1 ovarian
K-562 leukemia = tested on: K-562 leukemia
KM12 colon = tested on: KM12 colon
LOX IMVI melanoma = tested on: LOX IMVI melanoma
M14 melanoma = tested on: M14 melanoma
MALME-3M melanoma = tested on: MALME-3M melanoma
MCF7 breast = tested on: MCF7 breast
MDA-MB-231 breast = tested on: MDA-MB-231 breast
MDA-MB-435 = tested on: MDA-MB-435
MOLT-4 leukemia = tested on: MOLT-4 leukemia
NCI-H226 lung = tested on: NCI-H226 lung
NCI-H23 lung = tested on: NCI-H23 lung
NCI-H460 lung = tested on: NCI-H460 lung
NCI-H522 lung = tested on: NCI-H522 lung
NCI/ADR-RES ovarian = tested on: NCI/ADR-RES ovarian
OVCAR-3 ovarian = tested on: OVCAR-3 ovarian
OVCAR-4 ovarian = tested on: OVCAR-4 ovarian
OVCAR-5 ovarian = tested on: OVCAR-5 ovarian
OVCAR-8 ovarian = tested on: OVCAR-8 ovarian
PC-3 prostate = tested on: PC-3 prostate
RPMI-8226 leukemia = tested on: RPMI-8226 leukemia
RXF 393 renal = tested on: RXF 393 renal
SF-268 CNS = tested on: SF-268 CNS
SF-295 CNS = tested on: SF-295 CNS
SF-539 CNS = tested on: SF-539 CNS
SK-MEL-2 melanoma = tested on: SK-MEL-2 melanoma
SK-MEL-28 melanoma = tested on: SK-MEL-28 melanoma
SK-MEL-5 melanoma = tested on: SK-MEL-5 melanoma
SK-OV-3 ovarian = tested on: SK-OV-3 ovarian
SN12C renal = tested on: SN12C renal
SNB-19 CNS = tested on: SNB-19 CNS
SNB-75 CNS = tested on: SNB-75 CNS
SR leukemia = tested on: SR leukemia
SW-620 colon = tested on: SW-620 colon
T-47D breast = tested on: T-47D breast
TK-10 renal = tested on: TK-10 renal
U251 CNS = tested on: U251 CNS
UACC-257 melanoma = tested on: UACC-257 melanoma
UACC-62 melanoma = tested on: UACC-62 melanoma
UO-31 renal = tested on: UO-31 renal
CAKI-1 renal = tested on: CAKI-1 renal

Cc1cc(N2CCN(C)CC2)nc(N(CCNc2ccnc3cc(Cl)ccc23)Cc2ccco2)n1
7.84 µM: TGI (MDA-MB-231 breast)
5.97 µM: TGI (HL-60(TB) leukemia)
3.24 µM: TGI (SK-MEL-5 melanoma)
4.01 µM: TGI (UACC-62 melanoma)
4.88 µM: TGI (RXF 393 renal)
17.5 µM: TGI (ACHN renal)
37.9 µM: TGI (NCI-H226 lung)
10.2 µM: TGI (CCRF-CEM leukemia) | TGI (U251 CNS)
19.8 µM: TGI (OVCAR-8 ovarian)
10.4 µM: TGI (HCT-116 colon) | TGI (HT29 colon)
4.83 µM: TGI (786-0 renal)
3.39 µM: TGI (MDA-MB-435)
5.58 µM: TGI (SK-MEL-2 melanoma)
13.6 µM: TGI (KM12 colon)
11.1 µM: TGI (HCC-2998 colon)
3.79 µM: TGI (SF-295 CNS)
14.8 µM: TGI (NCI/ADR-RES ovarian)
5.23 µM: TGI (SR leukemia)
12.4 µM: TGI (SW-620 colon)
19 µM: TGI (DU-145 prostate)
22.1 µM: TGI (SK-OV-3 ovarian)
13.3 µM: TGI (NCI-H522 lung)
3.25 µM: TGI (SF-539 CNS)
6.89 µM: TGI (MCF7 breast)
20.3 µM: TGI (SF-268 CNS)
10.9 µM: TGI (HCT-15 colon) | TGI (MOLT-4 leukemia)
4.25 µM: TGI (UACC-257 melanoma)
3.56 µM: TGI (LOX IMVI melanoma)
19.4 µM: TGI (OVCAR-5 ovarian)
3.71 µM: TGI (MALME-3M melanoma)
18.2 µM: TGI (OVCAR-4 ovarian)
11.9 µM: TGI (UO-31 renal)
11.4 µM: TGI (TK-10 renal)
3.3 µM: TGI (M14 melanoma)
inactive: GI50 (786-0 renal) 1.93 µM | GI50 (A498 renal) 4.79 µM | GI50 (A549 NSCLC) 4.1 µM | GI50 (ACHN renal) 5.08 µM | GI50 (BT-549 breast) 2.94 µM | GI50 (CCRF-CEM leukemia) 3.37 µM | GI50 (COLO 205 colon) 1.88 µM | GI50 (DU-145 prostate) 5.94 µM | GI50 (EKVX NSCLC) 5.58 µM | GI50 (HCC-2998 colon) 2.65 µM | GI50 (HCT-116 colon) 2.6 µM | GI50 (HCT-15 colon) 2.69 µM | GI50 (HL-60(TB) leukemia) 2.25 µM | GI50 (HOP-62 NSCLC) 2.63 µM | GI50 (HOP-92 NSCLC) 3.1 µM | GI50 (HS 578T breast) 4.42 µM | GI50 (HT29 colon) 2.47 µM | GI50 (IGROV1 ovarian) 2.91 µM | GI50 (K-562 leukemia) 1.59 µM | GI50 (KM12 colon) 3.48 µM | GI50 (LOX IMVI melanoma) 1.77 µM | GI50 (M14 melanoma) 1.78 µM | GI50 (MALME-3M melanoma) 1.94 µM | GI50 (MCF7 breast) 2.12 µM | GI50 (MDA-MB-231 breast) 2.46 µM | GI50 (MDA-MB-435) 1.62 µM | GI50 (MOLT-4 leukemia) 2.8 µM | GI50 (NCI-H226 lung) 19.6 µM | GI50 (NCI-H23 lung) 6.26 µM | GI50 (NCI-H460 lung) 3.52 µM | GI50 (NCI-H522 lung) 3.51 µM | GI50 (NCI/ADR-RES ovarian) 3.1 µM | GI50 (OVCAR-3 ovarian) 2.62 µM | GI50 (OVCAR-4 ovarian) 4.91 µM | GI50 (OVCAR-5 ovarian) 5.89 µM | GI50 (OVCAR-8 ovarian) 5.33 µM | GI50 (PC-3 prostate) 3.7 µM | GI50 (RPMI-8226 leukemia) 2.18 µM | GI50 (RXF 393 renal) 1.82 µM | GI50 (SF-268 CNS) 5.82 µM | GI50 (SF-295 CNS) 1.8 µM | GI50 (SF-539 CNS) 1.68 µM | GI50 (SK-MEL-2 melanoma) 2.26 µM | GI50 (SK-MEL-28 melanoma) 1.71 µM | GI50 (SK-MEL-5 melanoma) 1.77 µM | GI50 (SK-OV-3 ovarian) 10.4 µM | GI50 (SN12C renal) 8.88 µM | GI50 (SNB-19 CNS) 4.92 µM | GI50 (SNB-75 CNS) 4.1 µM | GI50 (SR leukemia) 2.09 µM | GI50 (SW-620 colon) 3.04 µM | GI50 (T-47D breast) 2.07 µM | GI50 (TK-10 renal) 2.8 µM | GI50 (U251 CNS) 3.11 µM | GI50 (UACC-257 melanoma) 2.07 µM | GI50 (UACC-62 melanoma) 2.02 µM | GI50 (UO-31 renal) 2.66 µM
17.3 µM: TGI (A498 renal)
5.18 µM: TGI (COLO 205 colon)
11.8 µM: TGI (BT-549 breast) | TGI (NCI-H460 lung)
12.2 µM: TGI (IGROV1 ovarian)
5.72 µM: TGI (RPMI-8226 leukemia)
35.7 µM: TGI (HS 578T breast)
14.6 µM: TGI (A549 NSCLC)
14.9 µM: TGI (HOP-92 NSCLC)
16.5 µM: TGI (SNB-19 CNS)
9.73 µM: TGI (HOP-62 NSCLC)
19.7 µM: TGI (EKVX NSCLC)
19.6 µM: TGI (SNB-75 CNS)
6.41 µM: TGI (T-47D breast)
13.8 µM: TGI (PC-3 prostate)
9.95 µM: TGI (OVCAR-3 ovarian)
21 µM: TGI (SN12C renal)
4.78 µM: TGI (K-562 leukemia)
21.4 µM: TGI (NCI-H23 lung)
3.31 µM: TGI (SK-MEL-28 melanoma)

CCCC1=NC(C(F)(F)F)(C(F)(F)F)N=C(N2CCOCC2)O1
> 100 µM: TGI (786-0 renal) | TGI (A549 NSCLC) | TGI (BT-549 breast) | TGI (CAKI-1 renal) | TGI (CCRF-CEM leukemia) | TGI (COLO 205 colon) | TGI (DU-145 prostate) | TGI (EKVX NSCLC) | TGI (HCC-2998 colon) | TGI (HCT-116 colon) | TGI (HCT-15 colon) | TGI (HL-60(TB) leukemia) | TGI (HOP-62 NSCLC) | TGI (HOP-92 NSCLC) | TGI (HS 578T breast) | TGI (HT29 colon) | TGI (IGROV1 ovarian) | TGI (K-562 leukemia) | TGI (KM12 colon) | TGI (LOX IMVI melanoma) | TGI (M14 melanoma) | TGI (MALME-3M melanoma) | TGI (MCF7 breast) | TGI (MDA-MB-231 breast) | TGI (MDA-MB-435) | TGI (MOLT-4 leukemia) | TGI (NCI-H226 lung) | TGI (NCI-H23 lung) | TGI (NCI/ADR-RES ovarian) | TGI (OVCAR-3 ovarian) | TGI (OVCAR-4 ovarian) | TGI (OVCAR-5 ovarian) | TGI (OVCAR-8 ovarian) | TGI (PC-3 prostate) | TGI (RPMI-8226 leukemia) | TGI (RXF 393 renal) | TGI (SF-268 CNS) | TGI (SF-295 CNS) | TGI (SF-539 CNS) | TGI (SK-MEL-2 melanoma) | TGI (SK-MEL-28 melanoma) | TGI (SK-MEL-5 melanoma) | TGI (SK-OV-3 ovarian) | TGI (SN12C renal) | TGI (SNB-19 CNS) | TGI (SNB-75 CNS) | TGI (SR leukemia) | TGI (SW-620 colon) | TGI (T-47D breast) | TGI (TK-10 renal) | TGI (U251 CNS) | TGI (UACC-257 melanoma) | TGI (UACC-62 melanoma) | TGI (UO-31 renal)
